Results published in patent US20250289789A1, “REVERSIBLE LYSINE COVALENT MODIFIERS OF CDK2 AND USES THEREOF” (Terremoto Biosciences, Inc., priority 2023, published 2025).

Columns and labels:
Format in all cases: cell-based
[1] = target: T1, CDK4-NanoLuc fusion with CCND1 in 293T or 293 cells (Homo sapiens, UniProt P11802); test: NanoBRET Target Engagement (TE) Intracellular Kinase Assay, CDK4/CCND1; conditions: NanoBRET TE intracellular kinase assay, 2-hour incubation, read-out: NanoBRET-CDK4/D1 IC50
T1 construct: host or cells: 293T (ATCC CRL-3216) or 293 (ATCC CRL-1573)
T1 sequence (P11802 whole entry, the tested form may be a part): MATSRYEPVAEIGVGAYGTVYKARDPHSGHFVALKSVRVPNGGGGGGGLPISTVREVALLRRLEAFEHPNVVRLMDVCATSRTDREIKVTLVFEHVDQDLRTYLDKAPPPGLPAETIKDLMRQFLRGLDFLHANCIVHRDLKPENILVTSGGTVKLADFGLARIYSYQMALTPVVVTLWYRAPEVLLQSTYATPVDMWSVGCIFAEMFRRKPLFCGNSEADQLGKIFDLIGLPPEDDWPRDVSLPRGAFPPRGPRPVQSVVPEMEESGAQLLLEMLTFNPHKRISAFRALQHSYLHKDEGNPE
T1 sequence (P24385 whole entry partner, the tested form may be a part): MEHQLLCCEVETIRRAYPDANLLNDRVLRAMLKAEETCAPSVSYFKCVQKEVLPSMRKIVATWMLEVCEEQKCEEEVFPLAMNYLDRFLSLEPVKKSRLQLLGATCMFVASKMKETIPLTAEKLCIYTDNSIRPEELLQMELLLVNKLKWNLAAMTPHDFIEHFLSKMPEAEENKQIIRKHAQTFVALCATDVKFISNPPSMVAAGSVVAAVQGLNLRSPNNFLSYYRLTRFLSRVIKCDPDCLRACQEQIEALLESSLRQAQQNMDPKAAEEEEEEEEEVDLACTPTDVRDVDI
Protocol: (§1) Inhibitory effects of compounds were measured in NanoBRET TE Intracellular Kinase Assay. […] Cells were co-transfected with 1 μg/mL of CDK-NanoLuc Fusion Vector (Promega; NV2701 for CDK1, NV2781 for CDK2, NV2811 for CDK4, NV2841 for CDK6) and 1 μg/mL of the corresponding Cyclin Expression Vector (Promega; NV2601 for CCNB1, NV2641 for CCNE1, NV2621 for CCND1, NV2631 for CCND3) using FuGENE HD Transfection Reagent (Promega; E2311). […] 20 uL/well of 3× Intracellular TE Nano-Glo Substrate/Inhibitor (Promega; N2162) were added to 384-well plates and incubated for 3 minutes at room temperature. NanoBRET signals (donor emission wavelength at 450 nm, acceptor emission wavelength at 610 nm) were measured using Envision plate reader (PerkinElmer). NanoBRET ratio was calculated by: BRET Ratio=raw signal for acceptor/raw signal for donor. Dose response curve normalized to DMSO control was plotted using four-parameter logistic model for IC50 calculation.

[2] = test system: Phospho-Rb Ser807/811 in OVCAR3 cells; test: OVCAR3 Phospho-Rb Ser807/811 HTRF assay; conditions: Homo sapiens, OVCAR-3, 1 h, OVCAR3 cells, Phospho-Rb Ser807/811 HTRF, 1 hour incubation; read-out: pRb-OVCAR3 IC50
Protocol: Cells were trypsinized and resuspended in 1 mM hydroxyurea (Sigma; H8627), 90% RPMI and 10% fetal bovine serum. […] Dose response curve normalized to DMSO control was plotted using four-parameter logistic model for IC50 calculation.

[3] = target: T2, CDK2-NanoLuc fusion with CCNE1 in 293T or 293 cells (Homo sapiens, UniProt P24941); test: NanoBRET Target Engagement (TE) Intracellular Kinase Assay, CDK2/CCNE1; conditions: NanoBRET TE intracellular kinase assay, 2-hour incubation, read-out: NanoBRET-CDK2/E1 IC50
T2 construct: host or cells: 293T (ATCC CRL-3216) or 293 (ATCC CRL-1573)
Protocol: as §1

Compound	IC50 [1]	IC50 [2]	IC50 [3]
COc1cc(O)c(C=O)c(OCC(=O)Nc2cc([C@H]3CC[C@@H](OC(=O)Nc4ccccc4)C3)[nH]n2)c1 [Compound 164]	5.88 µM	0.301 µM	0.0096 µM
COc1cc(O)c(C=O)c(OCC(=O)Nc2cc([C@H]3CC[C@@H](OC(=O)Nc4ccncc4)C3)[nH]n2)c1 [Compound 165]	7.92 µM	0.383 µM	0.0128 µM
COc1cc(O)c(C=O)c(OCC(=O)Nc2cc([C@H]3CC[C@@H](OC(=O)NCc4ccccn4)C3)[nH]n2)c1 [Compound 166]	> 10 µM	0.167 µM	0.0103 µM
COc1cc(O)c(C=O)c(OCC(=O)Nc2cc([C@H]3CC[C@@H](OC(=O)N[C@@H](C)CC(F)(F)F)C3)[nH]n2)c1 [Compound 167]	0.828 µM	0.0243 µM	0.0028 µM
CCC[C@H](C)NC(=O)O[C@@H]1CC[C@H](c2cc(NC(=O)COc3cc(OC)cc(O)c3C=O)n[nH]2)C1 [Compound 168]	3.27 µM	0.0292 µM	0.00245 µM
CCN(C(=O)O[C@@H]1CC[C@H](c2cc(NC(=O)COc3cc(OC)cc(O)c3C=O)n[nH]2)C1)C(C)C [Compound 169]	0.773 µM	0.0229 µM	0.00227 µM
COc1cc(O)c(C=O)c(OCC(=O)Nc2cc([C@H]3CC[C@@H](OC(=O)NCc4ccccc4)C3)[nH]n2)c1 [Compound 170]	6.04 µM	0.0706 µM	0.00306 µM
COc1cc(O)c(C=O)c(OCC(=O)Nc2cc([C@H]3CC[C@@H](OC(=O)N(OC)C(C)C)C3)[nH]n2)c1 [Compound 171]	> 10 µM	0.107 µM	0.00324 µM
COc1cc(O)c(C=O)c(OCC(=O)Nc2cc([C@H]3CC[C@@H](OC(=O)N(O)C(C)C)C3)[nH]n2)c1 [Compound 173]	5.34 µM	0.0342 µM	0.00399 µM
COc1cc(O)c(C=O)c2c1C[C@@H](C(=O)Nc1cc([C@H]3CC[C@@H](OC(=O)NC(C)C)C3)[nH]n1)C2 [Compound 174, (1R,3S)-3-(3-((S)-4-formyl-5-hydroxy-7-methoxy-2,3-dihydro-1H-indene-2-carboxamido)-1H-pyrazol-5-yl)cyclopentyl isopropylcarbamate]	0.668 µM	0.0107 µM	0.00326 µM
COc1cc(O)c(C=O)c(OCC(=O)Nc2cc([C@H]3CC[C@@H](OC(=O)NCCC(F)(F)F)C3)[nH]n2)c1 [Compound 175]	8.44 µM	0.0169 µM	0.00211 µM
COCC(C)(C)NC(=O)O[C@@H]1CC[C@H](c2cc(NC(=O)COc3cc(OC)cc(O)c3C=O)n[nH]2)C1 [Compound 176]	3.36 µM	0.0574 µM	0.0042 µM
COCC[C@H](C)NC(=O)O[C@@H]1CC[C@H](c2cc(NC(=O)COc3cc(OC)cc(O)c3C=O)n[nH]2)C1 [Compound 177]	> 10 µM	0.0293 µM	0.00317 µM
COc1cc(O)c(C=O)c(OCC(=O)Nc2cc([C@H]3CC[C@@H](OC(=O)NCC4CCC4)C3)[nH]n2)c1 [Compound 178]	5.6 µM	0.0541 µM	0.00208 µM
COc1cc(O)c(C=O)c(OCC(=O)Nc2cc([C@H]3CC[C@@H](OC(=O)NCC4COC4)C3)[nH]n2)c1 [Compound 179]	> 10 µM	0.115 µM	0.0141 µM
CCN(CC)C(=O)O[C@@H]1CC[C@H](c2cc(NC(=O)COc3cc(OC)cc(O)c3C=O)n[nH]2)C1 [Compound 180]	1.58 µM	0.0235 µM	0.00268 µM
CCCCNC(=O)O[C@@H]1CC[C@H](c2cc(NC(=O)COc3cc(OC)cc(O)c3C=O)n[nH]2)C1 [Compound 181]	5 µM	0.0279 µM	0.00118 µM
CCCNC(=O)O[C@H]1C[C@@H](c2cc(NC(=O)COc3cc(OC)cc(O)c3C=O)n[nH]2)C1 [Compound 182, (1s,3s)-3-(3-(2-(2-formyl-3-hydroxy-5-methoxyphenoxy)acetamido)-1H-pyrazol-5-yl)cyclobutyl propylcarbamate]	> 10 µM	0.0661 µM	0.00624 µM

Compound	IC50 [1]	IC50 [2]	IC50 [3]
O=Cc1c(O)cc(Cl)cc1OCC(=O)Nc1cc([C@H]2CC[C@@H](OC(=O)N3C4COCC3C4)C2)[nH]n1 [Compound 183]	4.2 µM	0.14 µM	0.0101 µM
CC[C@H](C)NC(=O)O[C@@H]1CC[C@H](c2cc(NC(=O)COc3cc(OC)cc(O)c3C=O)n[nH]2)C1 [Compound 184]	1.45 µM	0.0206 µM	0.0015 µM
COc1cc(O)c(C=O)c(OCC(=O)Nc2cc([C@H]3CC[C@@H](OC(=O)NC4CN(C)C4)C3)[nH]n2)c1 [Compound 185]	> 10 µM	0.363 µM	0.445 µM
O=Cc1c(O)cc(OC(F)F)cc1OCC(=O)Nc1cc([C@H]2CC[C@@H](OC(=O)N3C4COCC3C4)C2)[nH]n1 [Compound 186]	6.58 µM	0.105 µM	0.022 µM
COc1cc(O)c(C=O)c(OCC(=O)Nc2cc([C@H]3CC[C@@H](OC(=O)N4CC(N(C)C)C4)C3)[nH]n2)c1 [Compound 187]	> 10 µM	0.0653 µM	0.0184 µM
COc1cc(O)c(C=O)c(OCC(=O)Nc2cc([C@H]3CC[C@@H](OC(=O)NCCN(C)C)C3)[nH]n2)c1 [Compound 188]	> 10 µM	0.368 µM	0.337 µM
COc1cc(O)c(C=O)c(OCC(=O)Nc2cc([C@H]3CC[C@@H](OC(=O)N4CC5CC(C4)N5C)C3)[nH]n2)c1 [Compound 189]	> 10 µM	0.198 µM	0.159 µM
COc1cc(O)c(C=O)c(OCC(=O)Nc2cc([C@H]3CC[C@@H](OC(=O)N4C5CC4CN(C)C5)C3)[nH]n2)c1 [Compound 190]	4.16 µM	0.035 µM	0.00802 µM
COc1cc(O)c(C=O)c(OCC(=O)Nc2cc([C@H]3CC[C@@H](OC(=O)N4CC5(CCN5C)C4)C3)[nH]n2)c1 [Compound 191]	> 10 µM	0.127 µM	0.025 µM
O=Cc1c(O)cc(F)cc1OCC(=O)Nc1cc([C@H]2CC[C@@H](OC(=O)N3C4COCC3C4)C2)[nH]n1 [Compound 192]	5.91 µM	0.088 µM	0.024 µM
COc1cc(O)c(C=O)c(O[C@H](C)C(=O)Nc2cc([C@H]3C[C@@H](OC(=O)N4C5COCC4C5)C3)[nH]n2)c1 [Compound 193]	> 10 µM	0.0847 µM	0.0116 µM
COc1cc(O)c(C=O)c(OCC(=O)Nc2cc([C@H]3CC[C@@H](OC(=O)N4CCN(C)CC4)C3)[nH]n2)c1 [Compound 195]	5 µM	0.0378 µM	0.00937 µM
O=Cc1c(O)cccc1OCC(=O)Nc1cc([C@H]2CC[C@@H](OC(=O)N3C4COCC3C4)C2)[nH]n1 [Compound 196]	7.36 µM	0.102 µM	0.0062 µM
COc1cc(O)c(C=O)c(OCC(=O)Nc2cc([C@H]3CC[C@@H](OC(=O)N4CCCCC4)C3)[nH]n2)c1 [Compound 234, (1R,3S)-3-(3-(2-(2-formyl-3-hydroxy-5-methoxyphenoxy)acetamido)-1H-pyrazol-5-yl)cyclopentyl piperidine-1-carboxylate]	2.84 µM	0.0142 µM	0.00118 µM
CC(C)NC(=O)O[C@@H]1CC[C@H](c2cc(Nc3nccc4c(C=O)c(O)ccc34)n[nH]2)C1 [Compound 260, (1R,3S)-3-(3-((5-formyl-6-hydroxyisoquinolin-1-yl)amino)-1H-pyrazol-5-yl)cyclopentyl isopropylcarbamate]	> 10 µM	0.17 µM	0.015 µM
CC1(NC(=O)O[C@@H]2CC[C@H](c3cc(Nc4nccc5c(C=O)c(O)ccc45)n[nH]3)C2)CC1 [Compound 261, (1R,3S)-3-(3-((5-formyl-6-hydroxyisoquinolin-1-yl)amino)-1H-pyrazol-5-yl)cyclopentyl (1-methylcyclopropyl)carbamate]	4.1 µM	0.051 µM	0.0047 µM
COc1cc(O)c(C=O)c(OCC(=O)Nc2cc([C@H]3CC[C@@H](OC(=O)N4C5CCC(C5)N4C)C3)[nH]n2)c1 (stereo partly drawn) [Compound 272, (1R,3S)-3-(3-(2-(2-formyl-3-hydroxy-5-methoxyphenoxy)acetamido)-1H-pyrazol-5-yl)cyclopentyl 3-methyl-2,3-diazabicyclo[2.2.1]heptane-2-carboxylate]	> 10 µM	0.0393 µM	0.0022 µM
COc1cc(O)c(C=O)c(OCC(=O)Nc2cc([C@H]3CC[C@@H](OC(=O)N4NC5CCC4C5)C3)[nH]n2)c1 (stereo partly drawn) [Compound 273, (1R,3S)-3-(3-(2-(2-formyl-3-hydroxy-5-methoxyphenoxy)acetamido)-1H-pyrazol-5-yl)cyclopentyl 2,3-diazabicyclo[2.2.1]heptane-2-carboxylate]	5.82 µM	0.0295 µM	0.00238 µM
